Among the data in patent US10807956B2, “Histone demethylase inhibitors” (CELGENE QUANTICEL RESEARCH, INC., priority 2012, dated 2020) are IC50 values, retold here.

In general, IC50 refers to the concentration that inhibits the measured activity by half. A low value points to higher potency.

The target in this assay is JMJD2C (Homo sapiens (Human), UniProt Q9H3R0). In words: JMJD2C TR-FRET enzyme inhibition assay. It is filed as biochemical. As to conditions: H3K9me3-biotin peptide. In general terms: TR-FRET usually uses a lanthanide donor and a delayed reading to cut background.
JMJD2C, sequence (Q9H3R0 2-372): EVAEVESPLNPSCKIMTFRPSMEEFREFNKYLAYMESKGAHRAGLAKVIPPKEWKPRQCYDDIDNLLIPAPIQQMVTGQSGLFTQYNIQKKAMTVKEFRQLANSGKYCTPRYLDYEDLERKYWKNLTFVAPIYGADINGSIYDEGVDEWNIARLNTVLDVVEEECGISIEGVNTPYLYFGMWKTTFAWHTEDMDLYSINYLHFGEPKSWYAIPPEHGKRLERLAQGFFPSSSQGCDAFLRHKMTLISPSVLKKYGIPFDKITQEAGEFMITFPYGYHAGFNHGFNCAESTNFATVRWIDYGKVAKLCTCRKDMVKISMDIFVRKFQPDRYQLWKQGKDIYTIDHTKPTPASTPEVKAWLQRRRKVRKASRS

Description: This assay determines the ability of a test compound to inhibit Jarid1A, Jarid1B, and JMJD2C demethylase activity. Baculovirus expressed Jarid1A (GenBank Accession # NM_001042603, AA1-1090) was purchased from BPS Bioscience (Cat #50110). Baculovirus expressed Jarid1B (GenBank Accession # NM_006618, AA 2-751) was purchased from BPS Bioscience (Cat #50121) or custom made by MolecularThroughput. Baculovirus-expressed JMJD2C (GenBank Accession # BC143571, AA 2-372) was purchased from BPS Bioscience (Cat #50105).
The ability of test compounds to inhibit the activity of JMJD2C was determined in 384-well plate format under the following reaction conditions: 0.3 nM JMJD2C, 300 nM H3K9me3-biotin labeled peptide (Anaspec cat #64360), 2 μM alpha-ketoglutaric acid in assay buffer of 50 mM HEPES, pH7.3, 0.005% Brij35, 0.5 mM TCEP, 0.2 mg/ml BSA, 50 μM sodium L-ascorbate, and 2 μM ammonium iron(II) sulfate. Reaction product was determined quantitatively by TR-FRET after the addition of detection reagent Phycolink Streptavidin-allophycocyanin (Prozyme) and Europium-anti-di-methylated histone H3 lysine 9 (H3K9me2) antibody (PerkinElmer) in the presence of 5 mM EDTA in LANCE detection buffer (PerkinElmer) at a final concentration of 50 nM and 1 nM, respectively.
The assay reaction was initiated by the following: 2 μl of the mixture of 900 nM H3K9me3-biotin labeled peptide and 6 μM alpha-ketoglutaric acid with 2 μl of 11-point serial diluted inhibitor in 3% DMSO were added to each well of the plate, followed by the addition of 2 μl of 0.9 nM JMJD2C to initiate the reaction. The reaction mixture was incubated at room temperature for 30 min, and terminated by the addition of 6 μl of 5 mM EDTA in LANCE detection buffer containing 100 nM Phycolink Streptavidin-allophycocyanin and 2 nM Europium-anti-H3K9me2 antibody. Plates were read by EnVisionMultilabel Reader in TR-FRET mode (excitation at 320 nm, emission at 615 nm and 665 nm) after 1 hr incubation at rt. A ratio was calculated (665/615) for each well and fitted to determine inhibition constant (IC50).

“3-{[(6-chloro-1-hydroxy-1,2,3,4-tetrahydronaphthalen-1- yl)methyl]amino}pyridine-4-carboxylic acid [Example 67]” registered an IC50 of 100 to 1000 nM.
To “3-{[(7-fluoro-3,4-dihydro-2H-chromen-4-yl)methyl]- amino}pyridine-4-carboxylic acid [Example 65]” belongs less than 100 nM; to “3-{[(6-chloro-1,2,3,4-tetrahydronaphthalen-1-yl)methyl]- amino}pyridine-4-carboxylic acid [Example 68]”, 100 to 1000 nM.
